Test results: publication PMC10608985, “Retention Behavior of Anticancer Thiosemicarbazides in Biomimetic Chromatographic Systems and In Silico Calculations” (Molecules, 2023)

Key:
[1] = HPLC lipophilicity on IAM (immobilized artificial membrane, phosphatidylcholine) stationary phase; assay type: physicochemical; settings: pH 7.4; for Log k IAM: Table S2; for log kw IAM: intercept, linear extrapolation to water; for log kw IAM / -S IAM: ACN/20 mM phosphate buffer; for -S IAM: slope of Soczewiński–Wachtmeister equation
Method: (§1) For the evaluation of the compounds the following stationary phases were used: C-18; biomimetic, IAM; cholesterol (Chol); immobilized proteins HSA and AGP. For the lipophilicity determination, MeOH (C-18, Chol) or ACN (IAM) were applied as the organic modifiers. The measurements were performed at pH 7.4 of the mobile phase. The regular changes in the retention of all solutes used as organic modifier content in the mobile phase on three studied stationary phases were found. It is expressed by the Soczewiński–Wachtmeister Equation (1):log k = log kw + S (% organic modifier)(1) where log kw—the intercept; S—the slope of regression curve. […] Log kw as well as S parameters are commonly applied as lipophilicity descriptors.
(§2) HPLC measurements were performed using a liquid chromatograph Knauer (Knauer, Berlin, Germany) with a dual pump, a 20 µL simple injection valve, and a UV–visible detector. The compounds were detected under UV light at 280 nm at room temperature. The retention time of an unretained solute (t0) was determined by the injection of a small amount of citric acid dissolved in water.
A Rexchrom IAM.PC.DD2 (12 μm, 100 × 4.6 mm, 300 Å) (Regis Technologies, Morton Grove, IL, USA) column was used as the stationary phase. The compounds were dissolved at a concentration of 0.5 mg × mL^−1 in MeOH. The mobile phases consisted of different volume fractions of ACN and 20 mM phosphate buffer; the aqueous phase maintained a pH = 7.4 (0.02 M KH2PO4, Na2HPO4 and 0.15 M KCl). The acetonitrile concentration ranged from 0.05 to 0.4 (v/v), depending on the structure of compound, at 0.05 intervals (Table S2 in the Supplementary Materials). The flow rate was 1 mL × min^−1.

[2] = HPLC lipophilicity on cholesterol (Chol) stationary phase; assay type: physicochemical; settings: pH 7.4; for Log k Chol: Table S3; for log kw Chol: intercept, linear extrapolation to water; for log kw Chol / -S Chol: MeOH/20 mM acetate buffer; for -S Chol: slope of Soczewiński–Wachtmeister equation
Method: as §1, §2
Cogent 4 UDC Cholesterol (150 × 2.1 mm, 4 µm) MicroSolv Technology Corporation (Leland, NC, USA) column was used. The mobile phase consisted of different volume mixtures of MeOH as the organic modifier and 20 mM acetate buffer as the aqueous phase, to obtain pH = 7.4. The concentrations of the organic modifier were in the range from 0.3 to 0.8 (v/v) with step 0.05 or 0.1 (Table S3 in the Supplementary Materials). The flow rate was 0.35 mL × min^−1.

[3] = target: T1, human serum albumin (HSA) (Homo sapiens, UniProt P02768); test: HPLC on immobilized HSA column, affinity and % plasma–protein binding; assay type: in vitro ADME; settings: for log K HSA: binding equilibrium constant from calibration curve (Equation 8) of log k HSA; for fraction unbound: human, pH 7.4, % plasma–protein binding converted from log K HSA (Equation 10), read-out: %PPB HSA (converted); for log k HSA: retention on HSA column, 50 mM ammonium acetate pH 7.4 / propan-2-ol 85/15 (v/v)
T1 construct: purchased Chiralpac
Method: (§3) Measurements on HSA and AGP immobilized protein columns were carried out with […] isopropanol content in the aqueous mobile phase.
(§4) The standard calibration curve was used to predict log K values (K—binding equilibrium constant) of investigated compounds to HSA and AGP. Next, the log K values were converted into a percentage of plasma–protein binding (%PPB) of the compounds (Table 2). […] It is the lowest for compound 16 with -NO2 substituent, unsubstituted compound 1, and fluorine derivatives 2 and 9. In a group of […] derivatives in the same position of the phenyl ring, the %PPB to AGP increases with the increase in the atomic weight of the halogen atom and the lipophilicity of the molecule.
as §2
(§5) A human serum albumin (HSA) immobilized on the 5 µm silica gel column 100 × 3 mm (Chiralpac) and an α1-acid glycoprotein (AGP) immobilized on the 5 µm silica gel column 100 × 4 mm (Chiralpac) were used. The compounds were dissolved at 0.5 mg/mL concentration in 50% propan-2-ol and ammonium acetate solution (pH = 7.4) mixtures for HSA measurements. The mobile phase was composed of 50 mM ammonium acetate solution (pH = 7.4) and propan-2-ol at 85/15 (v/v) for AGP, respectively. The flow of mobile phases was 0.5 mL×min^−1. Log k values for the selected mobile phase were determined for all studied compounds and standard substances. The % protein plasma binding (% PPB) values were calculated from the calibration curve according to Valko et al..
(§6) Calibration of the protein columns: The column performance check and the calibration check were performed before measurements. The racemic mixture of warfarin was used for their performance evaluation. The following calibration set of drugs was applied: bromazepam, carbamazepine, diclofenac, nicardipine, nizatidine, piroxicam for HSA and bromazepam, chlorpromazine, imipramine, nicardipine, nizatidine, propranolol, and warfarin for AGP. The analytical standards were purchased from Sigma Aldrich Steinhen, Steinheim am Albuch, Germany). The drugs were dissolved at 0.5 mg/mL concentration in 50% propan-2-ol and ammonium acetate solution mixtures (pH = 7.4). The obtained log k values from HPLC were plotted against the log K values (K—binding equilibrium constant, log K—linearized PPB) based on the literature data for plasma–protein binding (%, PPB). The following relationships were obtained: log KHSA = 0.2513 (±0.0984) + 1.0525 (±0.1171) log k HSA(8) n=6, R=0.9761, R^2 = 0.9528, Radj2 = 0.9410, s = 0.1948 log KAGP = 0.1733 (±0.0574) + 0.8902 (±0.0787) log k AGP(9) n=7, R=0.9810, R^2 = 0.9623, Radj2 = 0.9548, s = 0.1113
(§7) Log K values were converted into %PPB using the following equation [15]:(10) %PPB=101×10^logK/1+10^logK

[4] = test system: α1-acid glycoprotein (AGP); test: HPLC on immobilized AGP column, affinity and % plasma–protein binding; assay type: in vitro ADME, human; settings: for log K AGP: binding equilibrium constant from calibration curve (Equation 9) of log k AGP; for fraction unbound: human, pH 7.4, % plasma–protein binding converted from log K AGP (Equation 10), read-out: %PPB AGP (converted); for log k AGP: retention on AGP column, 50 mM ammonium acetate pH 7.4 / propan-2-ol 85/15 (v/v)
Method: as §3, §4, §2, §5, §6, §7

[5] = set-up: method as in Kozyra et al. [31]; settings: MeOH/20 mM acetate buffer, pH 7.4, ref Kozyra et al. [31], cited from earlier work; for log kw C-18: intercept of Soczewiński–Wachtmeister equation (water as mobile phase); for -S C-18: slope of Soczewiński–Wachtmeister equation

T1 sequence (P02768 25-609): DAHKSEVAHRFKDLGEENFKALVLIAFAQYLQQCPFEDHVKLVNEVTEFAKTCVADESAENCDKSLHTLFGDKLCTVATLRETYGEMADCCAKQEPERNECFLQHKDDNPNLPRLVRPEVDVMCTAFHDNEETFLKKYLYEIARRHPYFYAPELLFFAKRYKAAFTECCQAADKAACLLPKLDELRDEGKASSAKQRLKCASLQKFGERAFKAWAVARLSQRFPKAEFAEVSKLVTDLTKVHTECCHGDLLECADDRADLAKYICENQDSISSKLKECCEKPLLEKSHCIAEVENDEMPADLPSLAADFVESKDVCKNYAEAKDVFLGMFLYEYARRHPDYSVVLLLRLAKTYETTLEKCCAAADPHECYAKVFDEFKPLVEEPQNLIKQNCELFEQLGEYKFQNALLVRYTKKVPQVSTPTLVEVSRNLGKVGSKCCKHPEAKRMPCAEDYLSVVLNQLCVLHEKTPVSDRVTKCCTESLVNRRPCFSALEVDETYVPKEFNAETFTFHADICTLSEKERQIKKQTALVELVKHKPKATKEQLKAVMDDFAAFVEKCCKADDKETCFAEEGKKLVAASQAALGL

Row | Structure (SMILES) | Log k IAM ([1]; ACN 0.15 v/v in mobile phase) | Log k IAM ([1]; ACN 0.20 v/v in mobile phase) | Log k IAM ([1]; ACN 0.25 v/v in mobile phase) | Log k IAM ([1]; ACN 0.30 v/v in mobile phase) | Log k IAM ([1]; ACN 0.35 v/v in mobile phase) | log kw IAM [1] | -S IAM [1] | Log k Chol ([2]; MeOH 0.35 v/v in mobile phase) | Log k Chol ([2]; MeOH 0.40 v/v in mobile phase) | Log k Chol ([2]; MeOH 0.45 v/v in mobile phase) | Log k Chol ([2]; MeOH 0.50 v/v in mobile phase) | Log k Chol ([2]; MeOH 0.60 v/v in mobile phase) | Log k Chol ([2]; MeOH 0.80 v/v in mobile phase) | log kw Chol [2] | -S Chol [2] | log K HSA [3] | log k HSA [3] | log K AGP [4] | fraction unbound [4] | log k AGP [4] | other results
1 | O=C(COc1ccccc1)NNC(=S)Nc1ccc(F)cc1 [Compound 9] | 0.336 | 0.088 | -0.150 | -0.484 | -0.467 | 1.1652 | 5.1370 | 0.970 | 0.696 | 0.523 | 0.179 | -0.078 | -0.997 | 2.4029 | 4.2398 | 1.2852 | 0.9823 | 0.3891 | 0.283 | 0.2424 | Log k IAM ([1]; ACN 0.05 v/v in mobile phase): 1.054; Log k IAM ([1]; ACN 0.10 v/v in mobile phase): 0.588; Log k Chol ([2]; MeOH 0.30 v/v in mobile phase): 1.111; fraction unbound [3]: 0.04; log kw C-18 [5]: 2.1145; -S C-18 [5]: 4.2984
2 | O=C(COc1ccccc1)NNC(=S)Nc1ccc(Cl)cc1 [Compound 10] | 1.009 | 0.673 | 0.368 | -0.038 | -0.210 | 1.8779 | 6.0976 | 1.331 | 1.050 | 0.836 | 0.479 | 0.206 | -0.946 | 2.9842 | 4.8387 | 1.9333 | 1.5981 | 0.5075 | 0.23 | 0.3754 | Log k IAM ([1]; ACN 0.10 v/v in mobile phase): 1.235; Log k Chol ([2]; MeOH 0.30 v/v in mobile phase): 1.475; Log k Chol ([2]; MeOH 0.70 v/v in mobile phase): -0.396; fraction unbound [3]: 0.002; log kw C-18 [5]: 2.5914; -S C-18 [5]: 4.5132
3 | O=C(COc1ccccc1)NNC(=S)Nc1ccc(Br)cc1 [Compound 11] | 1.141 | 0.792 | 0.453 | 0.004 | -0.111 | 2.1020 | 6.5856 | 1.437 | 1.158 | 0.871 | 0.571 | 0.276 | -0.886 | 3.1674 | 5.0251 | 2.0248 | 1.685 | 0.6344 | 0.18 | 0.518 | log kw C-18 [5]: 2.734; -S C-18 [5]: 4.6183
